Data published in PMC3763901 (Bioorganic & medicinal chemistry letters, 2012).

Key:
[1] = molecular target: T1, stromelysin-1 catalytic domain (SCD) (Homo sapiens, UniProt P08254); settings: in Tris–HCl, not corrected for proton transfer; cited from earlier work
[2] = molecular target: T1, stromelysin-1 catalytic domain (SCD); assay: Isothermal titration calorimetry of ligand binding

T1 sequence (P08254 100-272 limits assumed, species assumed): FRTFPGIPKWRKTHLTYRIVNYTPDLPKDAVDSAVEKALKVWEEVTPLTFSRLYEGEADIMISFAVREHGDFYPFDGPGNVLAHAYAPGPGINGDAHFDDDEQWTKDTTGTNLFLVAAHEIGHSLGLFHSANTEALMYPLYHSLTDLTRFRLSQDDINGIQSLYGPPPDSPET

ΔG^0 ([2]; ITC, pH 7.5, 3% DMSO) [kJ/mol]	ΔHbind0 ([2]; ITC, pH 7.5, 3% DMSO, corrected for proton transfer) [kJ/mol]	ΔCP ([2]; from titrations at 15, 25 and 37 °C, by regression) [cal mol^−1 K^−1]	SMILES	ΔHobs [1] [kJ/mol]
–	–	–	Oc1ccccc1 [phenol]	-19.7
-10 ± 1.3	-9.62 ± 0.84	−67 ± 24	CC(=O)NO [Compound 8, acetohydroxamic acid]	–
